# Data from article PMC6273209, “Evaluation of the Enantiomer Specific Biokinetics and Radiation Doses of [^18F]Fluspidine—A New Tracer in Clinical Translation for Imaging of σ1 Receptors” (Molecules, 2016).
# Key:
# [1] = test system: σ1 receptors; set-up: method as in PMID 25071097; settings: σ1-rich areas of the porcine brain; cited from earlier work
# [2] = First-in-human PET/CT dosimetry study; assay type: in vivo; settings: for ED: first-in-human (clinical)
# Description: The first-in-human use of (S)-(−)-[^18F]fluspidine was authorized by the competent authorities in Germany, the Federal Institute for Drugs and Medical Devices (Bundesamt für Arzneimittel und Medizinprodukte, BfArM) and the Federal Office for Radiation Protection (Bundesamt für Strahlenschutz, BfS) as well as by the local ethics committee and was conducted in accordance with the Declaration of Helsinki. Informed consent was obtained from four healthy volunteers (2 f, 2 m; age: 23 ± 3 years; weight: 56 ± 4 kg). The volunteers were positioned supine with the arms down in a clinical PET/CT system (Biograph 16, Siemens, Erlangen, Germany) and received an intravenous injection of 255 ± 9 MBq (S)-(−)-[^18F]fluspidine. Simultaneously, the PET scan was started. It was divided into a dynamic part up to 2 h p.i. (7 frames) and a static part up to 7 h p.i. The volunteers left the investigation table four times to stretch out. All urine was collected, weighed, and the activity was determined in a gamma-counter (Packard Cobra II 5003 Auto Gamma Counting System, GMI, Ramsey, MN, USA) cross calibrated to the PET/CT system.
# The PET images were iteratively (ordered-subsets expectation maximization, OSEM) reconstructed (preclinical: 4 iterations, 6 subsets; clinical: 4 iterations, 8 subsets) and corrected for decay, randoms, scatter, and dead time, μ-maps for attenuation correction of PET-emission data were derived from the CT or MR [49] structural data, respectively. The PET data were re-binned into 10 time frames (preclinical: 4 × 5 min, 1 × 10 min, and 5 × 15 min; clinical: 4 × 12 min, 3 × 16 min, 1 × 32 min, 1 × 40 min, and 1 × 48 min), and the reconstructed PET/MRI and PET/CT images were co-registered manually with ROVER (ABX, advanced chemical compounds, Radeberg, Germany, version 2.1.17). Quantitative evaluation was performed by drawing volumes of interest (VOI) for brain, gallbladder, large intestine, small intestine, stomach, heart, kidneys, liver, lungs, pancreas, red marrow (backbone, pelvis, sternum), spleen, thyroid, testes, and urinary bladder (Figure S4). The PET derived biokinetic data is expressed as percentage of injected activity (dose) per cubic centimeter (%ID/cm^3).
# The human dosimetry estimation was performed with the data extrapolated as well as the genuine human data using OLINDA/EXM software. The time-activity curves were estimated by exponential fitting and calculating the time integral, which equals the number of disintegrations (NODs) per organ during the observation period normalized to 1 Becquerel administered activity dose. […] Therefore, activity data of the urinary bladder was derived from the image for each time point. In contrast, for humans the activity concentration data of the urinary bladder was obtained in a more direct approach. At first, the activity and volume of urine was determined in the last frame of the PET scan before each micturition. Afterwards, the voided urine was collected, weighed, and the activity of three aliquots (assuming 1 mL = 1 g) determined with a gamma counter, and the activity of the whole sample estimated. The difference between imaged and sampled urine activity is equal to the residue of radioactive urine in the urinary bladder. To calculate the NOD in the human urinary bladder, the time-activity curve is integrated using a trapezoidal equation (3) %ID˜UB=1/2∑i=1n−1(%IDi+%IDi+1)(ti+1−ti) with the fraction of injected activity %IDi at the time ti and the cumulated activity of the urinary bladder i.e., the NOD %ID˜UB .
# Furthermore, the NODs of the gastric system were calculated following the ICRP GI model (ICRP 30) as implemented in OLINDA 1.0. The NODs obtained either from the EXM module or the trapezoidal equation were transferred to OLINDA. The OD for the chosen hermaphroditic adult male phantom is estimated following the MIRD scheme. The S values are pre-calculated and implemented for the respective phantom in OLINDA. […]
# [3] = first-in-human PET/CT, adult male model
# [4] = first-in-human PET/CT, ICRP 103 weighting
# [5] = four volunteers after i.v. injection
structure (smiles),measurement,setting,value
[18F]CC[C@H]1OC2(CCN(Cc3ccccc3)CC2)c2ccccc21 [(R)-(+)-[^18F]fluspidine],"binding potential (BPnd), fold higher in comparison to (S)-(−)-[^18F]fluspidine",[1],5- to 10 fold
FCC[C@@H]1OC2(CCN(Cc3ccccc3)CC2)c2ccccc21 [(S)-(−)-[^18F]fluspidine],ED,"[2]; four healthy volunteers, ICRP 103 weighting",21.0 ± 1.3 μSv/MBq
same,ED,"[2]; four healthy volunteers, ICRP 103 weighting, listed as (S)-(−)-[^18F]Fluspidine",21.0 μSv/MBq
same,OD Adrenals,[2]; [3],15.3 μSv/MBq
same,OD Brain,[2]; [3],22.6 μSv/MBq
same,OD Breasts,[2]; [3],6.5 μSv/MBq
same,OD Gallbladder Wall,[2]; [3],60.7 μSv/MBq
same,OD Heart Wall,[2]; [3],17.7 μSv/MBq
same,OD Kidneys,[2]; [3],31.1 μSv/MBq
same,OD LLI Wall,[2]; [3],16.6 μSv/MBq
same,OD Liver,[2]; [3],76.0 μSv/MBq
same,OD Lungs,[2]; [3],28.2 μSv/MBq
same,OD Muscle,[2]; [3],7.8 μSv/MBq
same,OD Osteogenic Cells,[2]; [3],18.0 μSv/MBq
same,OD Ovaries,[2]; [3],13.8 μSv/MBq
same,OD Pancreas,[2]; [3],15.9 μSv/MBq
same,OD Red Marrow,[2]; [3],23.2 μSv/MBq
same,OD Skin,[2]; [3],5.3 μSv/MBq
same,OD Small Intestine,[2]; [3],56.9 μSv/MBq
same,OD Spleen,[2]; [3],24.0 μSv/MBq
same,OD Stomach Wall,[2]; [3],31.5 μSv/MBq
same,OD Testes,[2]; [3],8.0 μSv/MBq
same,OD Thymus,[2]; [3],7.5 μSv/MBq
same,OD Thyroid,[2]; [3],8.4 μSv/MBq
same,OD Total Body,[2]; [3],11.4 μSv/MBq
same,OD ULI Wall,[2]; [3],24.3 μSv/MBq
same,OD Urinary Bladder Wall,[2]; [3],24.7 μSv/MBq
same,OD Uterus,[2]; [3],13.0 μSv/MBq
same,ED Contr. Adrenals,[2]; [4],0.1 μSv/MBq
same,ED Contr. Brain,[2]; [4],0.2 μSv/MBq
same,ED Contr. Breasts,[2]; [4],0.8 μSv/MBq
same,ED Contr. Gallbladder Wall,[2]; [4],0.5 μSv/MBq
same,ED Contr. Heart Wall,[2]; [4],0.2 μSv/MBq
same,ED Contr. Kidneys,[2]; [4],0.3 μSv/MBq
same,ED Contr. LLI Wall,[2]; [4],1.0 μSv/MBq
same,ED Contr. Liver,[2]; [4],3.0 μSv/MBq
same,ED Contr. Lungs,[2]; [4],3.4 μSv/MBq
same,ED Contr. Muscle,[2]; [4],0.1 μSv/MBq
same,ED Contr. Osteogenic Cells,[2]; [4],0.2 μSv/MBq
same,ED Contr. Ovaries,[2]; [4],1.0 μSv/MBq
same,ED Contr. Pancreas,[2]; [4],0.1 μSv/MBq
same,ED Contr. Red Marrow,[2]; [4],2.8 μSv/MBq
same,ED Contr. Skin,[2]; [4],0.1 μSv/MBq
same,ED Contr. Small Intestine,[2]; [4],0.5 μSv/MBq
same,ED Contr. Spleen,[2]; [4],0.2 μSv/MBq
same,ED Contr. Stomach Wall,[2]; [4],3.8 μSv/MBq
same,ED Contr. Testes,[2]; [4],0.8 μSv/MBq
same,ED Contr. Thymus,[2]; [4],0.1 μSv/MBq
same,ED Contr. Thyroid,[2]; [4],0.3 μSv/MBq
same,ED Contr. Total Body,[2]; [4],0.0 μSv/MBq
same,ED Contr. ULI Wall,[2]; [4],1.5 μSv/MBq
same,ED Contr. Urinary Bladder Wall,[2]; [4],1.0 μSv/MBq
same,ED Contr. Uterus,[2]; [4],0.1 μSv/MBq
same,ED ICRP 60,"[2]; first-in-human, four healthy volunteers, ICRP 60 weighting",22.1 μSv/MBq
same,adverse effects,[2]; [5],no adverse effects reported
same,changes in vital signs,[2]; [5],no significant changes in vital signs
same,clearance of the radioligand from organs,"[2]; human TACs, brain, stomach, liver, spleen","rapidly removed from brain, stomach, liver, and spleen within one hour post injection"
same,actual ED from the human study in comparison to the extrapolated animal data,"[2]; human vs extrapolated animal data, p < 0.001",1.6 fold
